pIC50: −log10 of the molar value.
Legend:
recombinant human HDAC6 = recombinant human HDAC6 (Homo sapiens (Human), UniProt Q9UBN7); experiment: Enzymatic screening, HDAC6 inhibition (fluorogenic FdL_G substrate); assay type: biochemical
In short: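 Enzyme was preincubated with compound (8 doses, triplicate, 1% DMSO) in 25 mM Tris-HCl pH 8, 130 mM NaCl, 0.05% Tween-20, 10% glycerol, with BSA. A FLUOR DE LYS-Green substrate was then added, and fluorescence was read after developer plus 2 μM TSA.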

recombinant human HDAC1 = recombinant human HDAC1 (Homo sapiens (Human), UniProt Q13547); experiment: Enzymatic screening, HDAC1 inhibition (fluorogenic FdL_G substrate); assay type: biochemical
Sequence of recombinant human HDAC1 (Q13547 whole entry): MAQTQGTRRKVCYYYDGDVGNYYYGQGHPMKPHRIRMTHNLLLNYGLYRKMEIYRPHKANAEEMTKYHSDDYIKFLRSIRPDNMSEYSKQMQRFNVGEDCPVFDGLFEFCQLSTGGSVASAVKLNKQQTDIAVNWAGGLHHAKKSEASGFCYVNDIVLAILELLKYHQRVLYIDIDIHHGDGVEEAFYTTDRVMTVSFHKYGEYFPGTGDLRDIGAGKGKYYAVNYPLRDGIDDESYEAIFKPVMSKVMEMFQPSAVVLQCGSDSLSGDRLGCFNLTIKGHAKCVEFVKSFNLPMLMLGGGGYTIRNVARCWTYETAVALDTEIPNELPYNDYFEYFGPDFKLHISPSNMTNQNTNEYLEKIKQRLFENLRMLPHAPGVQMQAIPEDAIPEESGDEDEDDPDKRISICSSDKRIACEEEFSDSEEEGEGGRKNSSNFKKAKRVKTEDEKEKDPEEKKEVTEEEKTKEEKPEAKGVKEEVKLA
In short: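 Recombinant human HDAC1 inhibition was measured fluorometrically using the FLUOR DE LYS-Green (FdL_G) substrate. Compounds at 8 doses (1% DMSO final) in Tris-HCl pH 8 buffer with NaCl, Tween-20 and glycerol were preincubated in triplicate with enzyme and 1 mg/mL BSA, then given substrate. Developer I plus 2 μM TSA was added, and fluorescence read after 25 minutes in the dark.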

Stability in rat plasma = conditions: after 4 hours, 37° C.
[1] = Stability in human plasma; conditions: after 4 hours, 37° C.
[2] = Stability to Phase I metabolism in rat S9 liver fraction; conditions: after 90 minutes, 37° C.
Method: Test compounds were incubated in rat and human liver S9 fraction at 37° C. up to 90 minutes in order to evaluate their stability to Phase I metabolism by hepatic enzymes. Each test compound was incubated at μM concentration (50 μM when the samples were analysed by UV/HPLC, 1 or 2 μM when the samples were analysed by LC-MS/MS) with S9 fraction (protein content 2 mg/m L) in 100 mM phosphate buffer (pH 7.4), 3.3 mM MgCl2 and 1.3 mM NADPH for 0, 10, 30, 60 and 90 minutes at 37° C. in a thermostated oscillating bath. The reaction was stopped placing samples on ice bath and adding acidified acetonitrile. After centrifugation (10 minutes at 14000 rpm) an aliquot of the supernatant was diluted with water, filtered with 0.45 μm regenerated cellulose syringe filters and injected in HPLC-UV or in LC-MS/MS. The percentage of the remaining amount at the various incubation times with respect to the initial amount were calculated.

[3] = Stability to Phase I metabolism in human S9 liver fraction; conditions: after 90 minutes, 37° C.

Sequence of recombinant human HDAC6 (Q9UBN7 whole entry): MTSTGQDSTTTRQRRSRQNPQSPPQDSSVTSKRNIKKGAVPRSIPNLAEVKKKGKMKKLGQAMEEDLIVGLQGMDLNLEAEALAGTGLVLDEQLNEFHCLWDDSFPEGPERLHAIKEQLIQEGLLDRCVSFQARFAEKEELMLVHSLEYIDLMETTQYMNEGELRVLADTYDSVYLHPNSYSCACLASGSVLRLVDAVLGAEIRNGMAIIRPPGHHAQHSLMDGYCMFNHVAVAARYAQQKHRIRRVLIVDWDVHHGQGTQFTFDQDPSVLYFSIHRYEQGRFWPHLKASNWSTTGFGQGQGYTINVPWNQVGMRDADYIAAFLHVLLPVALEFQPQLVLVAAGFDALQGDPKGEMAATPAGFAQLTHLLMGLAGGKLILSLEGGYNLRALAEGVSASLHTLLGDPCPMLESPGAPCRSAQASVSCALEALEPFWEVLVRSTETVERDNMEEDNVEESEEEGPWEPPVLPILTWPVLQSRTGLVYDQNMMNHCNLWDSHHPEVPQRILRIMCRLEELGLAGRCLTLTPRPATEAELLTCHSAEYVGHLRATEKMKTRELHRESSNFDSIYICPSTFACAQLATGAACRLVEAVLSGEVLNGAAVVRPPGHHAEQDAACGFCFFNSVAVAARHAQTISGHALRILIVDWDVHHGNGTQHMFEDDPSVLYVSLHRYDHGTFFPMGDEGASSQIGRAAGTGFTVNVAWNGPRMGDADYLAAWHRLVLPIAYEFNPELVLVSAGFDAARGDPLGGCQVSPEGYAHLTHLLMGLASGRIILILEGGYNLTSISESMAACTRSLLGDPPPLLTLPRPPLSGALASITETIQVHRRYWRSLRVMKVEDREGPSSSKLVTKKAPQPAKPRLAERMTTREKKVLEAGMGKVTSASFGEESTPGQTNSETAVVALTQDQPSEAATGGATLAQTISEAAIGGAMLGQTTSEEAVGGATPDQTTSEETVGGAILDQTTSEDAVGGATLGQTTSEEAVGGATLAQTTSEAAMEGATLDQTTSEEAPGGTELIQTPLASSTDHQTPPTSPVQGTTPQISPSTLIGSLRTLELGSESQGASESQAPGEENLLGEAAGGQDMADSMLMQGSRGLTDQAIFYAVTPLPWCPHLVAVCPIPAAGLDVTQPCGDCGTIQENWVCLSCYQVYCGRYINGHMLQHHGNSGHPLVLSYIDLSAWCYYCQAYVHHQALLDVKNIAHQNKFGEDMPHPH

Row | SMILES | pIC50 (recombinant human HDAC6) | pIC50 (recombinant human HDAC1) | residual percentage in RAT PLASMA (Stability in rat plasma) [%] | residual percentage in HUMAN PLASMA [1] [%] | residual percentage in RAT S9 FRACTION [2] [%] | residual percentage in HUMAN S9 FRACTION [3] [%]
1 | O=C1Nc2ccc(-c3cn(Cc4ccc(-c5nnc(C(F)F)o5)cn4)nn3)cc2[C@@]12CCNC2 (single isomer, unassigned) [compound 273, 5-(1-((5-(5-(difluoromethyl)-1,3,4-oxadiazol-2-yl)pyridin-2-yl)methyl)-1H-1,2,3-triazol-4-yl)spiro[indoline-3,3′-pyrrolidin]-2-one] | 7.66 | < 3.70 | 74 | 83 | 99 | 92
2 | Fc1cc(-c2nnc(C(F)F)o2)cc(F)c1Cn1cc(-c2cccs2)nn1 [compound 122, 2-(3,5-difluoro-4-((4-(thiophen-2-yl)-1H-1,2,3-triazol-1-yl)methyl)phenyl)-5-(difluoromethyl)-1,3,4-oxadiazole] | 7.34 | < 3.70 | 84 | 88 | 10 | 78
3 | CC(c1ccc(-c2nnc(C(F)F)o2)c(F)c1)n1cc(-c2ccc(N)nc2)nn1 (stereo not drawn) [compound 186, 5-(1-(1-(4-(5-(difluoromethyl)-1,3,4-oxadiazol-2-yl)-3-fluorophenyl)ethyl)-1H-1,2,3-triazol-4-yl)pyridin-2-amine] | 7.01 | < 3.70 | 86 | 94 | 90 | 88
4 | NC(=O)c1cccc(-c2nnn(Cc3ccc(-c4nnc(C(F)F)o4)cc3F)n2)c1 [compound 50, 3-(2-(4-(5-(difluoromethyl)-1,3,4-oxadiazol-2-yl)-2-fluorobenzyl)-2H-tetrazol-5-yl)benzamide] | 7.66 | < 3.70 | 87 | 89 | 66 | 95
5 | O=C1Nc2ccc(-c3cn(Cc4ccc(-c5nnc(C(F)F)o5)cn4)nn3)cc2C12CCNC2 (stereo not drawn) [compound 28, 5-(1-((5-(5-(difluoromethyl)-1,3,4-oxadiazol-2-yl)pyridin-2-yl)methyl)-1H-1,2,3-triazol-4-yl)spiro[indoline-3,3′-pyrrolidin]-2-one] | 7.89 | < 3.70 | 64 | 74 | 97 | 98
6 | Nc1ncc(-c2nnn(Cc3ccc(-c4nnc(C(F)F)o4)cc3)n2)cn1 [compound 79, 5-(2-(4-(5-(difluoromethyl)-1,3,4-oxadiazol-2-yl)benzyl)-2H-tetrazol-5-yl)pyrimidin-2-amine] | 7.48 | < 3.70 | 77 | 85 | 78 | 96
7 | Nc1ncnc2cc(-c3cn(Cc4ccc(-c5nnc(C(F)F)o5)cc4)nn3)ccc12 [compound 84, 7-(1-(4-(5-(difluoromethyl)-1,3,4-oxadiazol-2-yl)benzyl)-1H-1,2,3-triazol-4-yl)quinazolin-4-amine] | 7.48 | < 3.70 | 60 | 80 | 62 | 85
8 | COc1ncccc1-c1cn(Cc2ccc(-c3nnc(C(F)F)o3)cn2)nn1 [compound 53, 2-(difluoromethyl)-5-(6-((4-(2-methoxypyridin-3-yl)-1H-1,2,3-triazol-1-yl)methyl)pyridin-3-yl)-1,3,4-oxadiazole] | 7.64 | < 3.70 | 78 | 77 | 91 | 88
9 | CC[C@H](c1ccc(-c2nnc(C(F)F)o2)cc1)n1cc(-c2ccc(N)nc2)nn1 (stereo in doubt) [compound 194, 5-(1-(1-(4-(5-(difluoromethyl)-1,3,4-oxadiazol-2-yl)phenyl)propyl)-1H-1,2,3-triazol-4-yl)pyridin-2-amine] | 6.98 | < 3.70 | 88 | 90 | 77 | 95
10 | Nc1ccc(-c2cn(Cc3ccc(-c4nnc(C(F)F)o4)cc3)cn2)cn1 [compound 151, 5-(1-(4-(5-(difluoromethyl)-1,3,4-oxadiazol-2-yl)benzyl)-1H-imidazol-4-yl)pyridin-2-amine] | 7.19 | < 3.70 | 97 | 98 | 79 | 83
11 | Nc1ccc(-c2nnc(Cc3ccc(-c4nnc(C(F)F)o4)cc3)o2)cn1 [Compd. 218, 5-(5-(4-(5-(difluoromethyl)-1,3,4-oxadiazol-2-yl)benzyl)-1,3,4-oxadiazol-2-yl)pyridin-2-amine] | 6.81 | < 3.70 | 69 | 92 | 89 | 86
12 | Nc1ccc(-c2cnn(Cc3ccc(-c4nnc(C(F)F)o4)cc3)c2)cn1 [compound 211, 5-(1-(4-(5-(difluoromethyl)-1,3,4-oxadiazol-2-yl)benzyl)-1H-pyrazol-4-yl)pyridin-2-amine] | 6.83 | < 3.70 | 89 | 91 | 80 | 63
13 | CCC[C@@H](c1ccc(-c2nnc(C(F)F)o2)cc1)n1cc(-c2ccc(N)nc2)nn1 (stereo in doubt) [compound 193, 5-(1-(1-(4-(5-(difluoromethyl)-1,3,4-oxadiazol-2-yl)phenyl)butyl)-1H-1,2,3-triazol-4-yl)pyridin-2-amine] | 6.98 | < 3.70 | 92 | 81 | 80 | 87
14 | FC(F)c1nnc(-c2ccc(Cn3nnnc3-c3csc4ccccc34)cc2)o1 [compound 288, 2-(4-((5-(benzo[b]thiophen-3-yl)-1H-tetrazol-1-yl)methyl)phenyl)-5-(difluoromethyl)-1,3,4-oxadiazole] | 6.45 | < 3.70 | 86 | 78 | 9 | 54
15 | Nc1cncc(-c2nnn(Cc3ccc(-c4nnc(C(F)F)o4)cc3)n2)c1 [compound 90, 5-(2-(4-(5-(difluoromethyl)-1,3,4-oxadiazol-2-yl)benzyl)-2H-tetrazol-5-yl)pyridin-3-amine] | 7.47 | < 3.70 | 88 | 80 | 13 | 83
16 | Nc1ccc(-c2nnn(Cc3ccc(-c4nnc(C(F)F)o4)cc3)n2)cn1 [compound 64, 5-(2-(4-(5-(difluoromethyl)-1,3,4-oxadiazol-2-yl)benzyl)-2H-tetrazol-5-yl)pyridin-2-amine] | 7.55 | < 3.70 | 70 | 69 | 9 | 103
17 | FC(F)c1nnc(-c2ccc(Cn3nnc(-c4cccc(-c5nc6c([nH]5)CCNC6)c4)n3)cc2)o1 [compound 108, 2-(difluoromethyl)-5-(4-((5-(3-(4,5,6,7-tetrahydro-1H-imidazo[4,5-c]pyridin-2-yl)phenyl)-2H-tetrazol-2-yl)methyl)phenyl)-1,3,4-oxadiazole] | 7.35 | 4.18 | 77 | 78 | 68 | 96
18 | O=C(c1cccc(-c2nnn(Cc3ccc(-c4nnc(C(F)F)o4)cc3F)n2)c1)N1CCOCC1 [compound 93, (3-(2-(4-(5-(difluoromethyl)-1,3,4-oxadiazol-2-yl)-2-fluorobenzyl)-2H-tetrazol-5-yl)phenyl)(morpholino)methanone] | 7.44 | < 3.70 | 79 | 74 | 59 | 72
19 | CCC[C@H](c1ccc(-c2nnc(C(F)F)o2)cc1)n1cc(-c2ccc(N)nc2)nn1 [compound 143, (R)-5-(1-(1-(4-(5-(difluoromethyl)-1,3,4-oxadiazol-2-yl)phenyl)butyl)-1H-1,2,3-triazol-4-yl)pyridin-2-amine] | 7.22 | < 3.70 | 80 | 60 | 71 | 89

— US20230286970A1, “NOVEL OXADIAZOLE-BASED SELECTIVE HDAC6 INHIBITORS” (ITALFARMACO S.P.A., priority 2020, published 2023)
